Results on 15 molecules are retold here after paper PMC4069242 (Clinical and experimental allergy : journal of the British …, 2014).

As a reminder, the IC50 is the concentration that gives 50% inhibition. Read a high IC50 as a need for much substance.

Where no end group is shown, it is not given here.

This experiment deals with DR04:01 protein (Homo sapiens, UniProt P01903+P01911, A100K/A169T/F76Y/I96L/K127E/L162R/M171V/N62H/P40V/Q125Y/R42H/S133A/S149N/S66Y/V115G/V209L/W38E). Put plainly: Peptide binding assay.
The molecule ETYKFIPSLEAAV [Pha a 5a 199-218] displayed a 50% inhibitory concentration (IC50) of 51 nM. This lies in the double-digit nanomolar range.
Next, AAFRIAATAANAA [Holl 5a 167-186]: 116 nM.
Next, EAYKFIPSLETAV [Holl 5a 199-218]: 105 nM; SEFEDVIPEGWKADTSYSAK [Lol p 1 221-240]: 2920 nM.
Next, AAFRTAATAADAA [Hor v 5a 167-186]: 970 nM; ESYKFIPALEAAV [Hor v 5a 199-218]: 990 nM.
As for DSYKFIPTLVAAV [Lol p 5a 199-218], the IC50 is 410 nM. Compared with the last molecule, the IC50 is about 2.4-fold lower.
Next, ESYKFIPTLEAAV [Dac g 5a 199-218]: 74.6 nM; AAYKIAATAANAA [Dac g 5a 167-186]: 50 nM; EEPIAPYHFDLSGHAFGSMA [Lol p 1 97-116]: 435 nM.
In turn, AAYRTAATAANAA [Lol p 5a 167-186] returned a half-inhibitory concentration (IC50) of 532 nM.
In turn, ESYKFIPALEAAV [Phl p 5a 199-218] returned a half-inhibitory concentration (IC50) of 970 nM.
In the case of `CC[C@H](C)[C@H](NC(=O)[C@@H](NC(=O)[C@H](CC(=O)O)NC(=O)[C@H](CCC(=O)O)NC(=O)[C@H](C)NC(=O)[C@H](CCC(=O)O)NC(=O)[C@@H](N)[C@@H](C)O)C(C)C)C(=O)N1CCC[C@H]1C(=O)N[C@@H](CCC(=O)O)C(=O)NCC(=O)N[C@@H](Cc1c[nH]c2ccccc12)C(=O)N[C@@H](CCCCN)C(=O)N[C@@H](C)C(=O)N[C@@H](CC(=O)O)C(=O)N[C@H](C(=O)N[C@@H](CO)C(=O)N[C@@H](Cc1ccc(O)cc1)C(=O)N[C@@H](CCC(=O)O)C(=O)N[C@@H](CO)C(=O)N[C@@H](CCCCN)C(=O)O)[C@@H](C)O` [Phl p 1 221-240], the IC50 is 2920 nM.
The value for EEPIAPYHFDLSGHAFGAMA [Phl p 1 97-116] was 275 nM.
Next, SEVEDVIPEGWKADTSYEAK [Dac g 1 221-240]: 177 nM.
